Results from patent US20080090788A1, “Chemical Compounds” (priority 2005, published 2008).

Columns and labels:
NF-kB = NF-kB luciferase reporter activity in LPS-stimulated U937-kBluc cells; format: cell-based, human; settings: for IC50: Homo sapiens, U937-kBluc cells, LPS 0.3 μg/ml, 6 hours, mean of duplicate determinations ±SD, read-out: IC50 for inhibition of LPS-induced NF-kB activity
Procedure: U937-kBluc cells were cultured in a 96 well plate (2×10^4 cells in 100 μl in each well) and stimulated with 0.3 μg/ml LPS (lipopolysaccaride; Sigma Aldrich). After 6 hours, cells were collected and luciferase activity determined using the luclite reagent (Perkin Elmer UK, Beaconsfield, UK) and a Packard TopCount (Perkin Elmer), as described by the manufacturer. To determine the effect of SFZ and analogues, various concentrations of each compound or an equivalent amount of DMSO as a solvent control were added 1 hour prior to addition of LPS. Each determination was made in triplicate. A cell line containing an NF-kB reporter construct was used to determine the effects of SFZ analogues on NF-kB activity. Cells were treated with LPS to induce NF-kB activity in the presence or absence of each compound, or DMSO as a solvent control, and luciferase activity analysed as a measure of NF-kB dependent transcription (FIG. 1). […] U937-kBluc cells were treated with LPS to activate NF-kB in the presence of increasing concentrations of SFZ, derivatives (3a-f), or DMSO as a solvent control. For each concentration of compound, the percentage inhibition of luciferase activity relative to cells treated with an equivalent amount of DMSO was calculated. (A) Representative dose response experiment (♦, 3a; ▪, SFZ). Each data point is the mean of triplicate samples (±SEM). (B) Detailed dose response assays were performed for compounds which gave >50% inhibition at 2 mM. The mean IC50 value (±SD) for inhibition of LPS-induced NF-kB activity is derived from 2 independent experiments, each performed in triplicate.

TIMP1 promoter = TIMP1 promoter luciferase activity in transfected activated HSC; format: cell-based; settings: SFZ 1 mM, 3a 0.150 mM, 3e 0.127 mM, 3f 0.089 mM, 24 hours, rat HSC
Procedure: (§1) For HSC transfections, activated HSC were transfected by the non-liposomal Effectene protocol (Qiagen, UK) using 1 μg reporter plasmid DNA and 10 ng of control Renilla plasmid pRLTK (Promega, Southampton, UK) according to the manufacturer's instructions. After 24 hours, HSC were treated with test compounds for a further 24 hours. Luciferase assays were performed using a dual luciferase kit (Promega) according to the manufacturer's instructions. Firefly luciferase activities were normalised for differences in transfection efficiency by measurement of the activity of the co-transfected pRLTK. The pIκBα wt-Luc plasmid contains nucleotides −332 to +35 of the human IkB-α promoter cloned upstream of luciferase gene (Oakley F, et al, J Biol Chem 2003; 278: 24359-70). The pTIMP1-Luc plasmid contains the 162 bp human TIMP1 minimal promoter cloned upstream of luciferase gene (Bertrand-Philippe M, et al. J Biol Chem 2004; 279: 24530-9). The pAP1-Luc plasmid (Stratagene, UK) contains 7 copies of a consensus AP-1 binding site upstream of the minimal promoter and the luciferase gene.
(§2) To extend these findings, further analyses were performed using the […] promoter which contains multiple NF-kB binding sites and is a well studied NF-kB target. […] Consistent with the presence of activated NF-kB in HSC, (Wright M C et al, Gastroenterology 2001; 121: 685-98.) the IkB-α promoter was activated in HSC (FIG. 2a). SFZ (1 mM) inhibited promoter activity by >60%. […] Therefore, the improved inhibitory activity of analogues 3a, 3e and 3f is specific for NF-kB mediated transcription and is not restricted to U937 cells or artificial promoter constructs.
(§3) Rat HSC were transfected with (A) IkB-α-Luc, (B) TIMP1-Luc or (C) pAP-1-Luc reporter constructs. After 24 hours, cells were treated with sulfasalazine (1 mM), 3a (0.150 mM), 3e (0.127 mM), 3f (0.089 mM), or treated with DMSO as a control. Luciferase activity was determined after another 24 hours. Data presented are mean luciferase activity (±SEM) relative to control cells (value set to 100), derived from two separate experiments, each performed in duplicate and using an independent preparation of HSC.

[1] = tested on: AP-1 transcription factor binding sites; experiment: AP-1 reporter construct luciferase activity in transfected activated HSC; format: cell-based; settings: SFZ 1 mM, 3a 0.150 mM, 3e 0.127 mM, 3f 0.089 mM, 24 hours, rat HSC
Procedure: as §1, §2, §3

ARH77 cells = experiment: Cell death in ARH77 cells, propidium iodide flow cytometry; format: cell-based; settings: Homo sapiens, ARH-77; 20 hours, PI uptake; mean of two determinations ±SD; read-out: IC50 for induction of ARH77 cell death
Procedure: A flow cytometry method was used to determine the ability of SFZ analogues to induce cell death in ARH77 cells. The proportion of cells that had lost plasma membrane integrity was used as a measure of cell viability. ARH77 (5×10^4) cells were incubated in a volume of 200 μl in 96 well plates with compound, an equivalent amount of DMSO or were left untreated as a control. After 20 hours, cells were washed in phosphate buffered saline (PBS), resuspended in PBS containing 1 μg/ml propidium iodide (PI) for 10 minutes. Cells were analysed using a FACSCalibur (BD Biosciences, Oxford, UK) using the FL2 channel. […] The proportion of cells with intense fluorescence as a proportion of total cells was calculated.
To assess cell death promoting activity, the ability of SFZ and the analogues with enhanced NF-kB inhibiting activity (3a, 3e and 3f) to kill Epstein-Barr virus transformed human B-cells, which are dependent on NF-kB for survival was compared (Cahir-McFarland E D, Carter K, Rosenwald A, et al. Role of NF-kB in cell survival and transcription of latent membrane protein 1-expressing or Epstein-Barr virus latency III-infected cells. J Virol 2004; 78: 4108-4119). […] Dose response experiments were performed to determine IC50 values (FIG. 4b).
ARH77 cells were incubated with various concentrations of SFZ, compounds 3a, 3e and 3f, DMSO as a solvent control, or were left untreated. […] (A) Representative histogram of fluorescence in untreated, DMSO or compound 3e (250 μM) treated cells. (B) Representative dose response experiment (□, untreated; ♦, DMSO; ▴, SFZ; ●, 3a; +, 3e; ×, 3f). Each data point is the mean of duplicate determinations (±SD). (C) Mean IC50 values (±SD) for induction of ARH77 cell death, derived from two independent experiments each performed in duplicate.

SMILES	IC50 (NF-kB) [µM]	improved inhibitory activity relative to SFZ (NF-kB; NF-kB inhibition, LPS treated U937 cells) [fold]	effect on TIMP1 promoter activity (TIMP1 promoter)	effect on activity of AP-1 reporter construct [1]	IC50 (ARH77 cells) [µM]
COc1ccc(CNS(=O)(=O)c2ccc(/N=N/c3ccc(O)c(C(=O)O)c3)cc2)cc1 [Compound 3a, 2-hydroxy-5-[4-(4-methoxy-benzylsulfamoyl)-phenylazo]-benzoic acid]	150 ± 27	7	neither SFZ or the analogues interfered with TIMP1 promoter activity	neither SFZ or the analogues interfered	499 ± 93
Cc1cc(/N=N/c2ccc(S(=O)(=O)NCc3ccc(C(F)(F)F)cc3)cc2)cc(C(=O)O)c1O [Compound 3e, 2-hydroxy-3-methyl-5-[4-(4-trifluoromethyl-benzylsulfamoyl)-phenylazo]-benzoic acid]	127 ± 19		neither SFZ or the analogues interfered with TIMP1 promoter activity	neither SFZ or the analogues interfered	195 ± 38
O=C(O)c1cc(/N=N/c2ccc(S(=O)(=O)NCc3ccc(C(F)(F)F)cc3)cc2)ccc1O [Compound 3f, 2-hydroxy-5-[4-(4-trifluoromethyl-benzylsulfamoyl)-phenylazo]-benzoic acid]	89 ± 26		neither SFZ or the analogues interfered with TIMP1 promoter activity	neither SFZ or the analogues interfered	407 ± 11
O=C(O)c1cc(/N=N/c2ccc(S(=O)(=O)Nc3ccccn3)cc2)ccc1O [SFZ, Sulfasalazine, reference compound]	1190 ± 96		neither SFZ or the analogues interfered with TIMP1 promoter activity	neither SFZ or the analogues interfered	1100 ± 250
